The values that follow come from patent US20080105961A1, “Ligands of the Molecule Fit (Agt-121) and their Pharmaceutical Use” (priority 2004, published 2008).

Marks after values point to notes of the source that are not given here.

The subject of one test is MC3R and MC4R. Conditions: ICV infusion, mice (Murphy et al. 1998); cited from earlier work.
The next test concerns the target T1, MC4R (Rattus norvegicus, UniProt P70596).
T1 construct: from tissue; host or cells: living Sprague Dawley rats (brain)
In words: Feeding response to MT II after ODN or saline infusion. The class given is in vivo, Sprague Dawley rats. The procedure:
To further investigate this relationship, antisense suppression of FIT in Sprague Dawley rats was again performed and these animals' responses to administration of the α-MSH analog MT II, a synthetic agonist of the MC4R and known suppressor of feeding. MT II effects on food intake and body weight in saline and jumbled ODN-treated control rats, as well as in FIT antisense-treated rats was measured.

The next test relates to FIT gene expression. Description: FIT gene expression in the hypothalamus of monogenic mouse models of obesity. The class given is in vivo. The settings on record: leptin-treated ob/ob mice, mean ± SEM. How it is done:
To investigate the molecular pathway via which FIT affect food intake, FIT gene expression was measured in the hypothalamus of several different monogenic mouse models of obesity. […] FIT gene expression was not altered in other genetic models of obesity such as leptin deficient ob/ob mice, MC3R knockout mice and MC4R knockout mice.

The next test has as its target T2, SH3GL2; endophilin 1 (human, UniProt Q99962 1-352).
T2 construct: Prey clone from a human brain cDNA library; not shown: not specified
In words: yeast two-hybrid screen of a human brain cDNA library (14 clones). From the text:
The inventors utilised a yeast two-hybrid system which incorporates modifications by Chevray and Nathans (1992), and Vidal et al. (1996) to screen a human brain cDNA library.

T1 sequence (P70596 whole entry): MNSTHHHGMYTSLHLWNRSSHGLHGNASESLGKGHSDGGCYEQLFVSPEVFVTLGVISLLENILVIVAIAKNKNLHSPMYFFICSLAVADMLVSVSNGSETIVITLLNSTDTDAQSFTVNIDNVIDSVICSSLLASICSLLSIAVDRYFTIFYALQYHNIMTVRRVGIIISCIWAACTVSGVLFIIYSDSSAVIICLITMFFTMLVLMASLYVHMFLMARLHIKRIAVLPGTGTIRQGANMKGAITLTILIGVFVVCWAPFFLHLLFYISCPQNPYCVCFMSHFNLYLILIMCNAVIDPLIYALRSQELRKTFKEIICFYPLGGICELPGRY
T2 sequence (Q99962 whole entry): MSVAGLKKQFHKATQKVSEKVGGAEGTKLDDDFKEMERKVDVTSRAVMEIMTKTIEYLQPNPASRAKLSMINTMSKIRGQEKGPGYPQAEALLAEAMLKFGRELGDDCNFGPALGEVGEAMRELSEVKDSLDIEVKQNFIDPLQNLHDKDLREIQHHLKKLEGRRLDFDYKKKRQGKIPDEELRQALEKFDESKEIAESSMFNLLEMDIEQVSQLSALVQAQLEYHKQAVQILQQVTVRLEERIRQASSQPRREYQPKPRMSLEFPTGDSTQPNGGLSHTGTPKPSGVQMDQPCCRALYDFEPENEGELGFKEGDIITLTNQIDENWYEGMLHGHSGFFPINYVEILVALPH

Take MT II: the “effect on food intake” value with MC3R and MC4R was “decrease food intake”. At MC4R (24 hr food intake post minus pre injection, mean ± SEM), the “Δ FI” value was −0.04 ± 0.01 g/g BW. Also, the “24 hr FI post injection” value at MC4R (food intake after MT II or vehicle injection, mean ± SEM) is on record as 0.03 ± 0.01^a g/g BW. For the same molecule, the “24 hr FI pre injection” value at MC4R (food intake, during ICV infusion, before MT II or vehicle injection, mean ± SEM) worked out at 0.07 ± 0.01 g/g BW. The “inhibitory effect on food intake in rats pre-treated with FIT antisense ODN versus control groups” value at MC4R (not statistically significantly different from control groups) was “tended to have a greater inhibitory effect”.

B1: Leptin: leptin given to leptin deficient ob/ob mice (protein, UniProt P41160 22-167, looked up)
Leptin: VPIQKVQDDTKTLIKTIVTRINDISHTQSVSAKQRVTGLDFIPGLHPILSLSKMDQTLAVYQQVLTSLPSQNVLQIANDLENLRDLLHLLAFSKSCSLPQTSGLQKPESLDGVLEASLYSTEVVALSRLQGSLQDILQQLDVSPEC
In the test with FIT gene expression, B1 registered an FIT gene expression of 1.3 ± 0.3 arbitrary units.

B2: FIT-NP (FIT N-terminal plus proline-rich region), yeast two-hybrid bait (other, not shown: small tags and cut ends)
chain: MMEGLKKRTRKAFGIRKKEKDTDSTGSPDRDGMQPSPHELPYHSKAECAREGGKKASKKSNGAPNGFYAEIDWERYNSPELDEEGYSIRPEEPGSTKGKHFYSSSESEEEEESHKKFNIKIKPLQSKDILKNAATVDELKASIGNIALSPSPVRKSPRRSPGAIKRNLSSEEVARPRRSTPTPELTSKKPLDDTLALAPLFGPPLESAFDGHKTEVLLDQPEIWGSGQPVNPSMESPKLARPFPTGTPPPLPPKTVPATPPRTGSPLTVATGNDQAATEAKIEKPPSISDLDSIFGPVLSPKSVAVNTEETWVHFSDASPEHVTPELTPREKVVTPPAASDIPADSPTPGPPGPPGSAGPPGPPGPRNVPSPLNLEEVQKKVAEQTFIKDDYLETLSSPKECGLGQRETPPPPPPPTYRTVVSSPGPGSGSGTGTASGASSPARPATPLVPCSCSTPPPPPPRPPSRPKLPPGKPGVGDVSRPFSPPIHSSSPPPIAPL
notes: Truncated fragment of FIT used as bait in a yeast two-hybrid screen of a human brain cDNA library; also called AGT-121
Regarding B2, the binding result with SH3GL2; endophilin 1 is “binds”.
